Assay results from patent US20260108612A1, “BETA-PEPTIDES AND BETA-PEPTIDE HYDROGELS” (MONASH UNIVERSITY, priority 2022, published 2026).
Entries after “also recorded” stand apart in the source; their conditions may differ.

How the values were obtained:
Assay type in all cases: physicochemical
[1] = Inversion test for hydrogel formation (gelation); conditions: for Gelation result: 37° C., 24 hours
Description: An inversion test was used to qualitatively assess different solvent conditions and concentrations of 1 and 2 for forming a non-flowing, self-supporting stable hydrogel (Liebman, T., et al., 2007). Peptide solubility was tested using a variety of solvents and solvent mixtures: MilliQ (ultrapure) water, phosphate buffered saline (PBS) 1× (Sigma P3813), PBS 10× (Sigma P3813) and Dulbecco's Modified Eagle's Medium/Nutrient Mixture F-12 Ham (DMEM/F12) (Sigma D8437). 100 μL or 50 μL of solvent was added to 0.5 mg of peptide in a glass vial to achieve a final concentration of 5 or 10 mg/mL, respectively. The solution was vortexed up to 30 mins until all the peptide particles had dissolved and left to self-assemble and gelate for 30 minutes at room temperature.

[2] = Atomic force microscopy of peptide self-assembly; conditions: ultrapure water, 0.25 mg/mL
Description: To confirm the self-assembly of β-tetrapeptides 1 and 2 into fibres, atomic force microscopy (AFM) was performed on a Nanoscope IV AFM with a Multimode head using a vertical engage ‘E’ scanner. A 2 μL peptide solution in MilliQ (ultrapure) water (0.25 mg/mL) was prepared and placed on a clean mica surface. A low concentration of peptide was necessary to avoid contamination the probe. The peptide solution was air-dried for 30 minutes, followed by further drying with a stream of N2 gas. Images were obtained under tapping mode with NSC-15 ‘B’ silicon cantilevers (Micromasch, Tallinn, Estonia) with a nominal force constant of 40 and 20 N/m for 1 and 2, respectively. Topographic, phase and amplitude images at a resolution of 512×512 were simultaneously obtained using scan frequency of 1 Hz with typical scan sizes of 5 μm×5 μm and 2 μm×2 μm. Images were processed with a sequence of plane fitting and offset flattening using Gwyddion 2.29 (www.gwyddion.net) software.

[3] = Rheological characterisation (parallel plate rheometer); conditions: strain sweep 1% to 100% over 20 minutes, 1 Hz, 37° C.
Description: Rheological measurements were undertaken using an Anton Paar Physical parallel plate rheometer at 37° C. Hydrogels were prepared in 75% MilliQ Water/25% DMEM/F12 using 10 mg/mL of the following: 100% 1, 50% 1/50% 2, and 100% 2. The hydrogel solutions were made just prior to experiment and vortexed thoroughly, and then immediately pipetted onto the base. A top plate with diameter 8 mm was lowered to form a measurement gap size of 0.1 mm. In an oscillatory time sweep test, the storage (elastic, G′) and loss (viscous, G″) moduli were measured with strain applied at 1% at a constant frequency of 1 Hz. For the cyclic step-strain test, after 20 minutes, the strain was increased to 100% for 1 minute to mechanically shear the hydrogel before it is returned to 1% strain. This was repeated an additional 2 times. The plateau modulus was calculated as the average of the storage modulus at the end of each 20-minute gelation cycle. A strain sweep was conducted from 1% to 100% strain over the 20 minutes with a constant frequency of 1 Hz. The gel-to-sol transition point was determined at the strain at which the storage and loss modulus equalled in value. A dynamic frequency sweep was performed from 0.01 to 10 Hz with a constant strain of 1%. All measurements were obtained in triplicate and all figures are presented as the average of those triplicates.

[4] = 50% MilliQ Water/50% DMEM/F12, 5 mg/mL
[5] = 50% MilliQ Water/50% DMEM/F12, 10 mg/mL
[6] = 75% MilliQ Water/25% DMEM/F12, 5 mg/mL
[7] = 75% MilliQ Water/25% DMEM/F12, 10 mg/mL

time within which the hydrogel reverts back to a solution ([1]; 1:1 MilliQ Water and DMEM/F12, both 5 and 10 mg/mL) | duration of stable hydrogel under physiological conditions ([1]; 3:1 MilliQ Water:DMEM/F12, 10 mg/mL) | Gelation result [1, 5] | Gelation result [1, 6] | Gelation result ([1]; DMEM/F12, 10 mg/mL) | peptide dissolution ([1]; MilliQ water, both 5 and 10 mg/mL) | spontaneous self-assembly into fibres (AFM) [2] | peptide dissolution ([1]; 5 mg/mL, MilliQ water, PBS 1×, PBS 10×, DMEM and 50% MQ Water/50% DMEM/F12) | Strain for gel-to-sol Transition [3] | SMILES | Gelation result [1, 4] | Gelation result [1, 7] | Gelation result ([1]; DMEM/F12, 5 mg/mL) | Gelation result ([1]; MilliQ water, 5 mg/mL) | Gelation result ([1]; MilliQ water, 10 mg/mL) | Gelation result ([1]; PBS 1×, 5 mg/mL) | Gelation result ([1]; PBS 1×, 10 mg/mL) | Gelation result ([1]; PBS 10×, 5 mg/mL) | Gelation result ([1]; PBS 10×, 10 mg/mL) | entanglement of the fibres (AFM) [2]
≤ 24 h | over several weeks | Unstable gel | Unstable gel | Poor dissolution | readily dissolved | distinct nanofibres |  |  | CCCCCCCCCCCCCC(=O)NCC(CC(=O)NC(C)CC(=O)NC(CCCCN)CC(=O)NC1COC(=O)C1)NC(C)=O (stereo not drawn) [compound 1, Ac-Az(Myr)AKS*-Lac] | Unstable gel | long-lasting stable hydrogel; also recorded: Stable gel | Liquid (liquid (has the same flow as water)) | Liquid (liquid (has the same flow as water)) | more viscous solution; also recorded: Viscous liquid | Viscous liquid | prevented the peptide from being completely dissolved; also recorded: Poor dissolution | Viscous liquid | prevented the peptide from being completely dissolved; also recorded: Poor dissolution | propensity for the nanofibres to aggregate together and form bundles
 |  | Unstable gel | Unstable gel | Unstable gel |  | distinct nanofibres | readily dissolved | 31% | CCCCCCCCCCCCCC(=O)NCC(CC(=O)NC(C)CC(=O)NC(CC(=O)NC1COC(=O)C1)C(=O)NCCNC(=O)C(CC(=O)O)NC(=O)CNC(=O)C(CCCNC(=N)N)NC(C)=O)NC(C)=O (stereo not drawn) [compound 2, Ac-Az(Myr)AX(RGD)S*-Lac] | liquid solution; also recorded: Liquid (liquid (has the same flow as water)) | Stable gel | liquid solution; also recorded: Liquid (liquid (has the same flow as water)) | liquid solution; also recorded: Liquid (liquid (has the same flow as water)) | Liquid (liquid (has the same flow as water)) | liquid solution; also recorded: Liquid (liquid (has the same flow as water)) | Viscous liquid | liquid solution; also recorded: Liquid (liquid (has the same flow as water)) | Poor dissolution | more wide-spread and mesh-like
